Data published in patent US10076522B2, “Systems and methods for treating bacterial infection” (priority 2016, dated 2018).
In brackets after ≈: the same amount, converted by molar mass. Entries after “also recorded” stand apart in the source; their conditions may differ.

Key:
[1] = target: T1, hERG-mediated potassium current (Homo sapiens, UniProt Q12809); test: Inhibition of hERG-mediated potassium current in transfected CHO cells; assay type: cell-based; details: reversible inhibition
T1 construct: expressed in transfected cells; host or cells: CHO (Chinese Hamster Ovary) cells

[2] = Single-dose ECG study in healthy human volunteers (1.6 and 3.2 mg/kg over 30 minutes); assay type: in vivo
Experimental: Based on this, a single-dose ECG-study was conducted in healthy human volunteers, where 1.6 mg/kg and 3.2 mg/kg iclaprim was infused over 30 minutes. […] Maximal increases coincided with Cmax levels and were rapidly reversible. Weight-based dosing with 1.6 mg/kg was thus assessed as acceptable for clinical purposes, whereas weight-based dosing at 3.2 mg/kg was associated with relevant QTc prolongations (>60 msec) and nonspecific T-wave alterations, and was not used for further clinical studies.

[3] = system: isolated rabbit Purkinje fibers
[4] = Phase III REVIVE-1 study, safety (adverse events)
Experimental: All subjects who received any study drug were evaluated for safety on the basis of medical history and physical examinations, reports of clinical AEs, routine electrocardiography, and clinically significant findings from routine liver function tests, serum chemistry, hematology, coagulation, and urinalysis (UA) tests. All adverse events were recorded throughout the study period, up to and including the LFU phone call. While blinded to treatment assignment, the investigator categorized the severity of each AE and the potential for relationship to study drug. Serious AEs (SAEs) include those that were life threatening, led to prolongation of the existing hospitalization, a congenital anomaly/birth defect, or caused persistent or significant disability, incapacity, or death. Treatment-emergent AEs (TEAEs) were defined as those that start or worsen in severity during or after the first dose of study drug administration through end of study.
Safety evaluation included incidence of TEAEs, laboratory test results (including liver function tests), vital signs, ECG results, and physical examination findings. All summaries of safety data was based on the safety population (all treated subjects).
The AE summary tables included subject (patient) counts. Therefore, if a subject experienced more than one episode of a particular AE, the subject was counted only once for that event. If a subject had more than one AE that was coded to the same preferred term, the subject was counted only once for that preferred term. Similarly, if a subject had more than one AE within a SOC, the subject was counted only once in that SOC.

SCNSA sodium channel = SCNSA sodium channel (Homo sapiens, UniProt Q14524); test: Sodium channel inhibition
[5] = system: acute bacterial skin and skin structure infections (ABSSSIs) suspected or confirmed to be due to Gram-positive pathogens; test: Phase III REVIVE-1 study, efficacy of fixed dose iclaprim versus vancomycin; assay type: in vivo, human; details: ITT; for non-inferiority (10% margin) compared to vancomycin: 80 mg over 2 hr q12h IV
Experimental: Subjects were evaluated daily up to ETP, then every 48 to 72 hours through the end of treatment. If the last dose of study drug fell on a day when an evaluation was not planned, an additional evaluation visit was performed on that day (i.e., all EOT evaluations were performed on the last day [+2 days] of drug dose).
The infusion time and duration of treatment for both groups was 2 hours and 5 days (minimum duration) to 14 days (maximum duration), respectively.
The primary endpoint for clinical response (defined as the reduction in lesion size ≥20% compared to baseline) was evaluated in all randomized subjects at ETP (48 to 72 hours post-first dose). […] In addition, clinical outcome was evaluated by the investigator at EOT and TOC (7 to 14 days post EOT). The assessments of clinical outcome was categorized as cure, failure, or indeterminate.
Iclaprim was administered at a dose of 80 mg in 500 mL normal saline, infused over 2 hours q12h (every 12 hours) for 5 to 14 days. For subjects with moderate hepatic impairment (Child-Pugh Class B), iclaprim was administered at a dose of 40 mg in 500 mL normal saline, infused over 2 hours q12h for 5 to 14 days.
Dosing interval was every q12 h, q24 h, q48 h, or dosed by daily level based on creatinine clearance.
The primary efficacy endpoint was the proportion of randomized subjects who achieved an early clinical response (defined as reduction in the lesion size ≥20% compared to baseline) at 48 to 72 hours (ETP) and was evaluated among all randomized subjects (ITT population).
The NI bound were 10%. […] Equivalently, if the lower bound of the two-sided 95% CI for P1-P2 was greater than −0.100 based on the Z test with unpooled variance estimate, NI was concluded.

clinical [6] = details: human, in vivo, 1 mg/kg
[7] = both, human, in vivo
Experimental: A second single-dose ECG study was conducted on healthy human volunteers using weight-based doses of 0.4 mg/kg and 0.8 mg/kg iclaprim base infused over 30 minutes and 1.6 mg/kg infused over 60 minutes.

clinical [8] = details: human, in vivo, iv, 0.8 mg/kg, mean Cmax
Experimental: (§1) For example, the PK profile of 0.8 mg/kg iclaprim administered by IV was investigated in 8 subjects with mild to moderate obesity (body mass index or “BMI” 30-40) and in 8 subjects with severe obesity (BMI>40). […] Linear regression analysis indicated a strong linear relationship between AUC (and Cmax) and BMI. Thus it was clear that the body composition of the subject affected the pharmacokinetics of IV administered iclaprim, with a greater percentage of body fat causing an increase in AUC and Cmax. […] Thus there is a risk of overdosing subjects with moderate hepatic impairment, which can be mitigated by reducing the IV iclaprim dose by about 50%.

clinical [9] = details: human, in vivo
S. aureus = test: MIC90 in worldwide surveillance studies; assay type: cell-based; details: Staphylococcus aureus
Source text: The ASSIST-1 and ASSIST-2 studies used sparse sampling with a population PK analysis. The post-hoc estimates of the individual subject PK parameters were used to simulate the plasma iclaprim concentration-time profiles for each subject and, from those profiles, the corresponding values for Cmaxss, AUC0-24hss, AUC/MIC, and T>MIC.

[10] = PK of IV iclaprim in subjects with moderate hepatic impairment; assay type: in vivo, human; details: moderate hepatic impairment (Child-Pugh grade B)
Experimental: as §1

Chain of SCNSA sodium channel (Q14524 whole entry): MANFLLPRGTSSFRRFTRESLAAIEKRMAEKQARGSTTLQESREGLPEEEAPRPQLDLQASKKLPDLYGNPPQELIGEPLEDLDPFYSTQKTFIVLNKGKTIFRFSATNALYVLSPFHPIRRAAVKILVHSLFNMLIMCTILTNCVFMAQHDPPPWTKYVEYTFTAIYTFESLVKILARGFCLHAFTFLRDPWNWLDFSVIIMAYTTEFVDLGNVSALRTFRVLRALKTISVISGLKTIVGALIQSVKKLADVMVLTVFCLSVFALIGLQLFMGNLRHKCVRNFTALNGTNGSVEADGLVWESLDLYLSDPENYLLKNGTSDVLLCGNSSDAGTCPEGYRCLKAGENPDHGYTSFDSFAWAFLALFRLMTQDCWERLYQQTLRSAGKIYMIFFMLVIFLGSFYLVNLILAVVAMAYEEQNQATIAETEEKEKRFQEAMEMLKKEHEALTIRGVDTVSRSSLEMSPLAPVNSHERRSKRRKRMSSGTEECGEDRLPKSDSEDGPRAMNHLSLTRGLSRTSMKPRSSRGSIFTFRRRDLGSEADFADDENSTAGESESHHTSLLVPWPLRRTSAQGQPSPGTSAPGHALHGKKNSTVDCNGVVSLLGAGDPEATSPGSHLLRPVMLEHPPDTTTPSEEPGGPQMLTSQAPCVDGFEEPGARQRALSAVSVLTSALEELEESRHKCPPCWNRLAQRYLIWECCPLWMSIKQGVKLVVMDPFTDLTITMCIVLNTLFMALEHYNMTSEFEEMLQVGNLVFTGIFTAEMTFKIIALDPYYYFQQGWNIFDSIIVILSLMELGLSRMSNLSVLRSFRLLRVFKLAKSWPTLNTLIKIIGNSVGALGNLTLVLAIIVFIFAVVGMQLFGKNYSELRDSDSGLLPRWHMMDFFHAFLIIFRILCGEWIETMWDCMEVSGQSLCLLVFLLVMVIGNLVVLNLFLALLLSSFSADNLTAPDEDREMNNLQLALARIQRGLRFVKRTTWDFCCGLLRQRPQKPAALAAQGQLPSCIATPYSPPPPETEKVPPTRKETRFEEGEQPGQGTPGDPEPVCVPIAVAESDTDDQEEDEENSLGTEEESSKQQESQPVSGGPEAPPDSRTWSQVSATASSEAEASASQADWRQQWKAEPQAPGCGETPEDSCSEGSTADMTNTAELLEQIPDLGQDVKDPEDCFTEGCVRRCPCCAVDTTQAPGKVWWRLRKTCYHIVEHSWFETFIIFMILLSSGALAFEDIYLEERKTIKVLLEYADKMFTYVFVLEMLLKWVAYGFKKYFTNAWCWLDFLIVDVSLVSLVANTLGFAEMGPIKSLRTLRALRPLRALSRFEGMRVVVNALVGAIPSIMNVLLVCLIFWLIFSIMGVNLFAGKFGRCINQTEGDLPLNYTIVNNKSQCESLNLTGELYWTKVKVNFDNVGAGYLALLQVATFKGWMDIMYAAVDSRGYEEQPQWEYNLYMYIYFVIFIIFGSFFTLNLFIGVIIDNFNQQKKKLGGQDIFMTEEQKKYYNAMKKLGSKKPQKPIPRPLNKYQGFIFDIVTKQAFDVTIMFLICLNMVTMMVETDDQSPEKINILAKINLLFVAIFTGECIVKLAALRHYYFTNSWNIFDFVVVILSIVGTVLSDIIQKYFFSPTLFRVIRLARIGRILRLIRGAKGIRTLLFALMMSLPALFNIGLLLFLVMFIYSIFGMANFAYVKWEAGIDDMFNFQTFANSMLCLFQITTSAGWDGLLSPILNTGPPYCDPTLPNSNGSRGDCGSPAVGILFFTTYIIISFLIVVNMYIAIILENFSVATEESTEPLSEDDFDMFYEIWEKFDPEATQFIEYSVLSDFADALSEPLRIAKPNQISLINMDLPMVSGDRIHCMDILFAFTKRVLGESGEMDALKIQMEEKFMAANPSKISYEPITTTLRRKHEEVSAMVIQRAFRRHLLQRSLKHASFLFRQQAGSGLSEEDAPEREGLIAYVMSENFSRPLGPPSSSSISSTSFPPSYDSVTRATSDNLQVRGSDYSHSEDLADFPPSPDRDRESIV
T1 sequence (Q12809 whole entry): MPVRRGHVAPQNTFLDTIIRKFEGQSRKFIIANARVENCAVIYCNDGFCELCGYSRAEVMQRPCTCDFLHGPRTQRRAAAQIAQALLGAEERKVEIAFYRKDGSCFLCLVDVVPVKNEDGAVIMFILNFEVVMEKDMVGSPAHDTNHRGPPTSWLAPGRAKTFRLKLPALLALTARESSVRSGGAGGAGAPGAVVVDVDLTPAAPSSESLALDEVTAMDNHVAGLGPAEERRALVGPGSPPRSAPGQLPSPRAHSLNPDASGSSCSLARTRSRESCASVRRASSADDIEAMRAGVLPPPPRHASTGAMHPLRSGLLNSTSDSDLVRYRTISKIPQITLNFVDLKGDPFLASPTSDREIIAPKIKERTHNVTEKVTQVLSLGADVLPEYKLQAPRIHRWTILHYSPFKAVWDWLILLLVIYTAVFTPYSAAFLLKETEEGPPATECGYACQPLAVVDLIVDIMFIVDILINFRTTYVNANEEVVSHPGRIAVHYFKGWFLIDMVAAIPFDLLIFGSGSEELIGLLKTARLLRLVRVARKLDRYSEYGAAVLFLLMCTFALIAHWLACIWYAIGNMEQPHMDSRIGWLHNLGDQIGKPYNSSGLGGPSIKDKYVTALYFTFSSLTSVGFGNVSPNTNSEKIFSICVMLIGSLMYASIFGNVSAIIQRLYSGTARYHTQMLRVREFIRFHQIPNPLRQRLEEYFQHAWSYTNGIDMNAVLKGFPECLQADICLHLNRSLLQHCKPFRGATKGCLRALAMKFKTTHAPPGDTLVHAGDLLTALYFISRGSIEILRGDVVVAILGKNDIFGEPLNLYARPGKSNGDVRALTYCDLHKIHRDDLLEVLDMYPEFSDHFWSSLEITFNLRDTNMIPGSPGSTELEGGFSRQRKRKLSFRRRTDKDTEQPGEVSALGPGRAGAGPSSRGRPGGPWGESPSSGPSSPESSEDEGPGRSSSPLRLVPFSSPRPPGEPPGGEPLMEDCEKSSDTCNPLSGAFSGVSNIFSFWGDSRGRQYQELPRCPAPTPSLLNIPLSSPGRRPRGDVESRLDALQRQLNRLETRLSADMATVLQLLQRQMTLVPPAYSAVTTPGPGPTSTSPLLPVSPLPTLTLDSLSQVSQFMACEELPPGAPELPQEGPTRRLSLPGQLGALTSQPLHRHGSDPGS

SMILES: COc1cc(Cc2cnc(N)nc2N)c2c(c1OC)OC(C1CC1)C=C2 (racemic) [Iclaprim]
- IC50 [1]: 0.9 µM
- QTc prolongations ([2]; 3.2 mg/kg infused over 30 minutes): > 60 ms
- effect on QTc interval ([2]; 1.6 and 3.2 mg/kg infused over 30 minutes, dose-dependent): prolonged the QTc interval
- concentration above which action potential duration was increased [3]: above 1 μM
- Deaths, number of subjects ([4]; REVIVE-1 safety population): 0
- Deaths, percent of subjects ([4]; REVIVE-1 safety population): 0.0%
- Study drug related TEAEs, number of subjects ([4]; human, in vivo): 57
- Study drug related TEAEs, percent of subjects ([4]; human, in vivo): 19.5%
- TEAE-related SAEs (Serious AEs), number of subjects ([4]; human, in vivo): 8
- TEAE-related SAEs (Serious AEs), percent of subjects ([4]; human, in vivo): 2.7%
- TEAEs (Treatment Emergent Adverse Events), number of subjects ([4]; human, in vivo): 151
- TEAEs (Treatment Emergent Adverse Events), percent of subjects ([4]; human, in vivo): 51.5%
- TEAEs leading to discontinuation of study drug, number of subjects ([4]; human, in vivo): 8
- TEAEs leading to discontinuation of study drug, percent of subjects ([4]; human, in vivo): 2.7%
- IC50 (SCNSA sodium channel): 95 µM
- non-inferiority (10% margin) compared to vancomycin ([5]; ETP): achieved the primary endpoint of non-inferiority; also recorded: non-inferior
- non-inferiority (10% margin) compared to vancomycin ([5]; TOC): achieved NI
- Early Clinical Response (ECR), number of subjects ([5]; ETP (48 to 72 hours)): 241
- Early Clinical Response (ECR), percent of subjects ([5]; ETP (48 to 72 hours)): 80.9%
- Early Clinical Response (ECR), % Difference iclaprim vs vancomycin ([5]; ETP): −0.13%
- Clinical cure, number of subjects ([5]; TOC (7 to 14 days after study drug discontinuation)): 251
- Clinical cure, % Difference iclaprim vs vancomycin ([5]; TOC): −2.77%
- Clinical cure, percent of subjects ([5]; TOC): 84.2%
- Cmax (clinical [6]): 792 ng/mL
- post-infusion QTcF prolongation from baseline (any subject) [7]: ≤ 60 ms
- Cmax (clinical [8]): 854 ng/mL
- AUC (clinical [9]; 0.25 mg/kg): 598 ± 270 ng·h/mL
- Cmax (clinical [9]; 0.25 mg/kg): 686 ± 279 ng/mL
- AUC (clinical [9]; 0.5 mg/kg): 996 ng·h/mL
- AUC (clinical [9]; 1 mg/kg): 1980 ng·h/mL
- AUC (clinical [9]; 2 mg/kg): 4040 ng·h/mL
- AUC (clinical [9]; 4 mg/kg): 6810 ng·h/mL
- Cmax (clinical [9]; 4 mg/kg): 4020 ng/mL
- MIC90 (S. aureus): 0.12 µg/mL (≈ 0.339 µM)
- increase in AUC [10]: 2.5 fold
- increase in Cmax [10]: 1.4 fold
